Target: T1, mouse Tas2r144 (Mus musculus, UniProt Q7TQB8)
T1 construct: expressed in transfected cells; host or cells: HEK293T-Gα16gust44
Experiment: Calcium imaging assay (FLIPR), HEK293T-Gα16gust44 cells transfected with mouse Tas2r144
Assay type: cell-based
Settings: for Δ F/F: Tas2r144
Procedure: This set of bile acids was chosen because of their commercial availability in high purities, their diversity within the class of bile acids and their previous detection and quantitation in human blood. Stock solutions were prepared in DMSO.
As basal growth medium for the HEK293T-Gα16gust44 cell line[17],[59] served Dulbecco’s modified eagle medium (DMEM) (Thermo Fisher Scientific, Darmstadt, Germany) supplemented with 10 % fetal bovine serum (Sigma-Aldrich, Steinheim, Germany), 2 mM L-glutamine (Sigma-Aldrich, Steinheim, Germany), 100 units/ml penicillin (Sigma Aldrich, Steinheim, Germany) and 100 µg/ml streptomycin (Sigma Aldrich, Steinheim, Germany). Growth conditions were 37 °C, 5 % CO2 and saturated air-humidity[60].
HEK293T-Gα16gust44 cells were seeded on poly-D-lysine (10 µg/ml) coated 96-well plates to reach a confluence of 40-60 % the next day. For transient transfection 150 ng of plasmid DNA containing the receptor of interest and 0.3 µl lipofectamine 2000 (Thermo Fisher Scientific, Darmstadt, Germany) per well were used and transfection took place according to the manual of lipofectamine 2000. […] The empty vector DNA (mock) was transfected as negative control[14],[41].
Cells were loaded using the calcium-sensitive fluorescent dye Fluo-4-AM (Abcam, Cambridge, Great Britain) in the presence of 2.5 mM probenecid (Sigma-Aldrich, Steinheim, Germany) the day after transfection[13],[41]. 1 h after loading, cells were washed with C1 buffer using a BioTek Cell Washer, incubated in the dark for half an hour and washed again. For automated agonist application and measurement of fluorescence changes, a FLIPR^TETRA device (Molecular Devices, San José, United States) was used. Viability of cells was tested by application of 100 nM Somatostatin 14 (Bachem, Bubendorf, Switzerland)[42].
Measured data were negative control corrected by subtracting the signal of the mock-transfected cells and exported to Microsoft Excel using the FLIPR software ScreenWorks 4.2. In Microsoft Excel software, standardization of maximum fluorescence intensities to the basal fluorescence and normalization to the buffer-only control was done to calculate the relative fluorescence changes (ΔF/F).
Initial screening experiments performed in duplicate wells were confirmed by at least one replication and representative traces were selected for display. All dose-response relationships were determined by three independent experiments (biological replicates) performed in duplicates (technical replicates). Threshold concentrations, defined as lowest substance concentrations leading to statistically significant elevated fluorescence changes in receptor-transfected cells compared with empty vector-transfected cells, were determined using SigmaPlot with Student’s t-test to evaluate statistical significance (p < 0.01).

T1 sequence (Q7TQB8 whole entry): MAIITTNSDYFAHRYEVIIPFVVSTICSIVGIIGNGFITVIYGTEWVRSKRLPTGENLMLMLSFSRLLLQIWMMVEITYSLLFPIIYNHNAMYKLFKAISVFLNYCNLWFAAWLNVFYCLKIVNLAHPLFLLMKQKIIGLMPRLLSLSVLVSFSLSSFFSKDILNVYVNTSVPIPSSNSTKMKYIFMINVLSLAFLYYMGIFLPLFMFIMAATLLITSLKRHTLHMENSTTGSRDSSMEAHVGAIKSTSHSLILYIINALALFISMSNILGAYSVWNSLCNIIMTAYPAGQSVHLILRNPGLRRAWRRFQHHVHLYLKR

For `C[C@H](CCC(=O)NCC(=O)O)[C@H]1CC[C@H]2[C@@H]3[C@H](O)C[C@@H]4C[C@H](O)CC[C@]4(C)[C@H]3C[C@H](O)[C@]12C` [Glycocholic Acid, glycocholic acid], the “Δ F/F” value (conc. 0,01 mM) was 0.007151, the “Δ F/F” value (conc. 0,1 mM) was 0.04043 and the “Δ F/F” value (conc. 0,03 mM) was 0.015. The “Δ F/F” value (conc. 0,3 mM) was 0.08047, the “Δ F/F” value (conc. 0,003 mM) was 0.00267 and the RLU (Time 0 s) was 0 RLU. It also gave an RLU (Time 2 s) of -31.2125 RLU, an RLU (Time 4 s) of -43.6447 RLU and an RLU (Time 6 s) of -0.4257 RLU. It also gave an RLU (Time 8 s) of -5.711 RLU, an RLU (Time 12 s) of -13.8091 RLU and an RLU (Time 14 s) of -0.4257 RLU. The RLU (Time 16 s) was -0.5597 RLU, the RLU (Time 18 s) was 10.0299 RLU and the RLU (Time 18.781 s) was -3.913 RLU. The RLU (Time 20.781 s) was -28.6004 RLU, the RLU (Time 22.781 s) was -59.2077 RLU and the RLU (Time 24.781 s) was -17.5148 RLU. The RLU (Time 26.781 s) was 37.2224 RLU, the RLU (Time 28.781 s) was 99.9904 RLU and the RLU (Time 30.781 s) was 135.498 RLU. It also gave an RLU (Time 32.781 s) of 202.624 RLU, an RLU (Time 34.781 s) of 240.201 RLU and an RLU (Time 36.781 s) of 276.718 RLU. For the same compound, the RLU (Time 38.781 s) was 320.611 RLU, the RLU (Time 40.781 s) was 324.075 RLU and the RLU (Time 42.781 s) was 335.112 RLU. For the same compound, the RLU (Time 44.781 s) was 371.949 RLU, the RLU (Time 46.781 s) was 375.35 RLU and the RLU (Time 48.781 s) was 395.668 RLU. For the same compound, the RLU (Time 50.781 s) was 393.283 RLU, the RLU (Time 52.781 s) was 432.603 RLU and the RLU (Time 54.781 s) was 444.104 RLU. For the same compound, the RLU (Time 56.781 s) was 419.562 RLU, the RLU (Time 58.781 s) was 425.176 RLU and the RLU (Time 60.781 s) was 431.497 RLU. It also gave an RLU (Time 62.781 s) of 417.317 RLU, an RLU (Time 64.781 s) of 465.061 RLU and an RLU (Time 66.781 s) of 447.834 RLU. It also gave an RLU (Time 68.781 s) of 427.827 RLU, an RLU (Time 70.781 s) of 415.079 RLU and an RLU (Time 72.781 s) of 432.914 RLU. It also gave an RLU (Time 74.781 s) of 450.52 RLU, an RLU (Time 76.781 s) of 421.617 RLU and an RLU (Time 78.781 s) of 441.46 RLU. It also gave an RLU (Time 80.781 s) of 426.566 RLU, an RLU (Time 82.781 s) of 423.408 RLU and an RLU (Time 84.781 s) of 393.748 RLU. It also gave an RLU (Time 86.781 s) of 429.403 RLU, an RLU (Time 88.781 s) of 405.471 RLU and an RLU (Time 90.781 s) of 401.169 RLU. For the same compound, the RLU (Time 92.781 s) was 422.993 RLU, the RLU (Time 94.781 s) was 401.134 RLU and the RLU (Time 96.781 s) was 381.14 RLU. For the same compound, the RLU (Time 98.781 s) was 357.346 RLU, the RLU (Time 100.781 s) was 380.46 RLU and the RLU (Time 102.781 s) was 368.041 RLU. It also gave an RLU (Time 104.781 s) of 369.437 RLU, an RLU (Time 106.781 s) of 355.75 RLU and an RLU (Time 108.781 s) of 354.221 RLU. The RLU (Time 110.781 s) was 346.013 RLU, the RLU (Time 112.781 s) was 352.628 RLU and the RLU (Time 114.781 s) was 328.654 RLU. The RLU (Time 116.781 s) was 301.02 RLU, the RLU (Time 118.781 s) was 305.388 RLU and the RLU (Time 120.781 s) was 301.126 RLU. For the same compound, the RLU (Time 122.781 s) was 277.354 RLU, the RLU (Time 124.781 s) was 278.403 RLU and the RLU (Time 126.781 s) was 268.257 RLU. The RLU (Time 128.781 s) was 264.093 RLU, the RLU (Time 130.781 s) was 273.404 RLU and the RLU (Time 132.781 s) was 241.449 RLU. The RLU (Time 134.781 s) was 241.405 RLU, the RLU (Time 136.781 s) was 246.641 RLU and the RLU (Time 137.562 s) was 213.654 RLU. It also gave an RLU (Time 143.562 s) of 221.818 RLU, an RLU (Time 149.562 s) of 207.299 RLU and an RLU (Time 155.562 s) of 180.281 RLU. The RLU (Time 161.562 s) was 165.822 RLU, the RLU (Time 167.562 s) was 177.105 RLU and the RLU (Time 173.562 s) was 151.305 RLU. For the same compound, the RLU (Time 179.562 s) was 140.777 RLU, the RLU (Time 185.562 s) was 121.278 RLU and the RLU (Time 191.562 s) was 122.229 RLU. For the same compound, the RLU (Time 197.562 s) was 118.034 RLU, the RLU (Time 203.562 s) was 110.818 RLU and the RLU (Time 209.562 s) was 87.4457 RLU. For the same compound, the RLU (Time 215.562 s) was 107.926 RLU, the RLU (Time 221.562 s) was 45.9427 RLU and the RLU (Time 227.562 s) was 30.7626 RLU. For the same compound, the RLU (Time 233.562 s) was 60.9884 RLU, the RLU (Time 239.562 s) was 58.9568 RLU and the RLU (Time 245.562 s) was 54.3153 RLU. It also gave an RLU (Time 293.562 s) of 51.7559 RLU, an RLU (Time 299.562 s) of 74.5788 RLU and an RLU (Time 305.562 s) of 55.2043 RLU. It also gave an RLU (Time 311.562 s) of 49.25 RLU, an RLU (Time 317.562 s) of 60.65 RLU and an RLU (Time 323.562 s) of 55.6278 RLU. It also gave an RLU (Time 329.562 s) of 55.0836 RLU, an RLU (Time 335.562 s) of 69.3242 RLU and an RLU (Time 341.562 s) of 66.607 RLU. It also gave an RLU (Time 347.562 s) of 79.0246 RLU, an RLU (Time 353.562 s) of 84.7807 RLU and an RLU (Time 359.562 s) of 64.803 RLU. For the same compound, the “Activation threshold concentration Tas2r144” value (p < 0.01 vs empty vector) was 100 µM.
